{"source": "patent US20220304945A1", "about": "“METHODS OF TREATING METABOLIC SYNDROME RELATED CONDITIONS USING RETINOIC ACID RECEPTOR AGONISTS” (Cornell University, priority 2014, published 2022)", "data": [{"target": "T1, RARβ2 (Homo sapiens, UniProt P10826)", "T1 sequence (P10826 1-448 isoform P10826-2)": "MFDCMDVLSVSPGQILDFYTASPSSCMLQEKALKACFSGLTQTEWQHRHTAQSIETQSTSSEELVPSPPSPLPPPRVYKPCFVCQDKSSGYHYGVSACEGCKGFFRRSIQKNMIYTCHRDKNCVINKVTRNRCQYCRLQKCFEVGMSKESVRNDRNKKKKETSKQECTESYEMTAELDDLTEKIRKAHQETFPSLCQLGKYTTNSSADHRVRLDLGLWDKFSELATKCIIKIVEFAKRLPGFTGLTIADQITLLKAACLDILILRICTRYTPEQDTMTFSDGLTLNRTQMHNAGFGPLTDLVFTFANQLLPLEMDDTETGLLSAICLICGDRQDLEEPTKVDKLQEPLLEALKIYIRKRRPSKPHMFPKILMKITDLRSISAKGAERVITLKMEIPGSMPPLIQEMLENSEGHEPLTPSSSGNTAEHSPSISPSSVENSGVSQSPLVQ", "assay": "not given", "set-up": "expressed in transfected cells", "settings": "from Table 1 and Table 2 of WO2007/009083; cited from earlier work", "units": {"% Eff.": "%"}, "values": [{"smiles": "CCCCCCCCCc1ccc(-c2ccc(C(=O)O)cc2)cc1", "note": "[Compound 2]", "% Eff.": 126}, {"smiles": "CCCCCc1ccc(-c2ccc(C(=O)O)cc2)cc1", "note": "[Compound 4]", "% Eff.": 44}, {"smiles": "CCCCCCCCc1ccc(-c2ccc(C(=O)O)cc2)cc1", "note": "[Compound 6]", "% Eff.": 104}, {"smiles": "CCCCCCCCc1ccc(-c2ccc(C(=O)n3ccnc3)cc2)cc1", "note": "[Compound 8]", "% Eff.": 79, "pEC50": 7.66}, {"smiles": "CCCCCCCc1ccc(-c2ccc(C(=O)O)cc2)cc1", "note": "[Compound 9]", "% Eff.": 76}, {"smiles": "CCCCCCCc1ccc(-c2ccc(C(=O)O)cc2)cc1", "note": "[Compound 10]", "% Eff.": 64}, {"smiles": "CCCCCCOc1cc(C)c(-c2ccc(C(=O)O)cc2)cc1C", "note": "[Compound 11]", "% Eff.": 78}, {"smiles": "CCCCCCOc1ccc(-c2ccc(C(=O)O)cc2)cc1", "note": "[Compound 12]", "% Eff.": 72}, {"smiles": "CCCCCCNC(=O)COc1nc(-c2ccc(C(=O)O)cc2)sc1C", "note": "[Compound 13]", "% Eff.": 85}, {"smiles": "CCCCCCCCc1ccc(-c2ccc(C(=O)n3cnc(NC(C)=O)n3)cc2)cc1", "note": "[Compound 15]", "% Eff.": 76}, {"smiles": "CCCCCCc1ccc(-c2ccc(C(=O)O)cc2)cc1", "note": "[Compound 16]", "% Eff.": 37}, {"smiles": "CCCCOCCOc1ccc(-c2ccc(C(=O)O)cc2)cc1", "note": "[Compound 18]", "% Eff.": 108}, {"smiles": "CCCCCCCCCCOc1ccc(-c2ccc(C(=O)O)cc2)cc1", "note": "[Compound 20]", "% Eff.": 98}, {"smiles": "CCCCCCCc1ccc(-c2ccc(C(=O)O)cc2F)cc1", "note": "[Compound 22]", "% Eff.": 36}, {"smiles": "CCCCCCCOc1ccc(-c2ccc(C(=O)O)cc2)cc1", "note": "[Compound 24]", "% Eff.": 58}, {"smiles": "CC(C)CCCCOc1ccc(-c2ccc(C(=O)O)cc2)cc1", "note": "[Compound 25]", "% Eff.": 65}, {"smiles": "CCCCc1ccc(-c2ccc(C(=O)O)cc2)cc1", "note": "[Compound 26]", "% Eff.": 36, "pEC50": 7.15}, {"smiles": "CCCCOCCOc1nc(-c2ccc(C(=O)O)cc2)sc1C", "note": "[Compound 27]", "% Eff.": 95}, {"smiles": "CCCCCCCCc1ccc(-c2ccc(C(=O)Nc3ccc(C)cn3)cc2)cc1", "note": "[Compound 29]", "% Eff.": 78}, {"smiles": "CCCCCCCCc1ccc(-c2ccc(C(=O)C(=O)O)cc2)cc1", "note": "[Compound 31]", "% Eff.": 80}, {"smiles": "CCCCCCCCOc1ccc(-c2ccc(C(=O)O)cc2)cc1", "note": "[Compound 32]", "% Eff.": 70}, {"smiles": "CCCOCCOc1nc(-c2ccc(C(=O)O)cc2)sc1C", "note": "[Compound 33]", "% Eff.": 98}, {"smiles": "CCCCCCCCc1ccc(-c2ccc(C(=O)O)cc2)cc1", "note": "[Compound 35]", "% Eff.": 83}, {"smiles": "CCCCCCCc1ccc(-c2ccc(C(=O)O)c(F)c2)cc1", "note": "[Compound 36]", "% Eff.": 42}, {"smiles": "CCCCCCCc1ccc(-c2ccc(C(=O)NO)cc2)cc1", "note": "[Compound 37]", "% Eff.": 49}, {"smiles": "CCCCCCCCc1ccc(-c2ccc(C(=O)O)cc2F)cc1", "note": "[Compound 38]", "% Eff.": 70, "pEC50": 6.81}, {"smiles": "CCCCOCCOc1cc(C)c(-c2ccc(C(=O)O)cc2)cc1C", "note": "[Compound 44]", "% Eff.": 41}, {"smiles": "CCCCCCCc1ccc(-c2ccc(C(=O)NN)cc2)cc1", "note": "[Compound 45]", "% Eff.": 78}, {"smiles": "CCCCC(CC)COc1nc(-c2ccc(C(=O)O)cc2)sc1C", "note": "(stereo not drawn) [Compound 46]", "% Eff.": 54}, {"smiles": "O=C(O)c1ccc(-c2ccc(OCCC=C(C3CC3)C3CC3)cc2)cc1", "note": "[Compound 47]", "% Eff.": 58}, {"smiles": "CCCC1CCCC(c2ccc(-c3ccc(C(=O)O)cc3)cc2)CC1", "note": "(stereo not drawn) [Compound 49]", "% Eff.": 59}, {"smiles": "CCCCCCCCN1CCN(c2ccc(C(=O)O)cc2)CC1", "note": "[Compound 50]", "% Eff.": 85}, {"smiles": "CCCCCCCCOc1ccc(-c2ccc(C(=O)NCCC#N)cc2)cc1", "note": "[Compound 51]", "% Eff.": 59}, {"smiles": "CCCCCCCc1ccc(-c2ccc(C(=O)O)c(C)c2)cc1", "note": "[Compound 52]", "% Eff.": 45, "pEC50": 6.41}, {"smiles": "CCCCCCCCc1ccc(-c2ccc(C(=O)O)cc2)cc1", "note": "[Compound 53]", "% Eff.": 99}, {"smiles": "CCCCCCCCOc1ccc(-c2ccc(C(=O)NCCc3ccccn3)cc2)cc1", "note": "[Compound 54]", "% Eff.": 39}, {"smiles": "CCCCCCCCc1ccc(-c2ccc(C(=O)O)c(C)c2)cc1", "note": "[Compound 55]", "% Eff.": 84}, {"smiles": "Cc1sc(-c2ccc(C(=O)O)cc2)nc1OCC(=O)NC1CCCCCC1", "note": "[Compound 56]", "% Eff.": 105}, {"smiles": "Cc1sc(-c2ccc(C(=O)O)cc2)nc1OCC(=O)NC(C)CCC(C)C", "note": "(stereo not drawn) [Compound 57]", "% Eff.": 77}, {"smiles": "Cc1sc(-c2ccc(C(=O)O)cc2)nc1OCC(=O)NC1CCC(C)CC1", "note": "(stereo not drawn) [Compound 58]", "% Eff.": 66}, {"smiles": "CCCCCCCc1ccc(-c2ccc(C(=O)NCCc3ccccn3)cc2)cc1", "note": "[Compound 59]", "% Eff.": 35}, {"smiles": "CCCCCCCCc1ccc(-c2ccc(C(=O)NS(C)(=O)=O)cc2)cc1", "note": "[Compound 60]", "% Eff.": 51}, {"smiles": "Cc1sc(-c2ccc(C(=O)O)cc2)nc1OCC(=O)NC1CCCC1", "note": "[Compound 61]", "% Eff.": 39}, {"smiles": "CCCCNC(=O)COc1nc(-c2ccc(C(=O)O)cc2)sc1C", "note": "[Compound 62]", "% Eff.": 37}, {"smiles": "CCCCCCc1ccc(-c2ccc(C(=O)Nc3ccc(C)cn3)cc2)cc1", "note": "[Compound 63]", "% Eff.": 36}]}, {"tested_on": "mouse ES cells (RARβ, Cyp26a1 transcripts)", "assay": "RT-PCR of RA-responsive genes in WT and RARβ KO ES cells", "assay_type": "cell-based", "settings": "WT ES cells, presence of RA vs untreated", "description": "(§1) C57BL/6 RARβ heterozygous mice were provided by Dr. Pierre Chambon (Strasbourg-Cedex, France) (26). Homozygous RARβ-null mice were obtained following mating of RARβ heterozygous mice. Blastocysts were harvested on day E3.5 and individually cultured on ES cell medium as previously described (28).\n(§2) Various markers for endodermal (day 5), pancreatic progenitor (day 11), endocrine progenitor (day 14) and endocrine (day 17) differentiation were analyzed by semi-quantitative RT-PCR in J1 wild-type and RARβ KO ESCs. Primers were designed around introns whenever possible. Total RNA extraction, semi-quantitative and quantitative PCR reactions were performed as previously described (18). Amplified PCR products were resolved on 1.5% agarose gels and visualized by staining with ethidium bromide. PCR bands were sequenced for verification of the correct amplicon. Quantitation of semi-quantitative gels was performed using ImageJ software (National Institutes of Health) from three experimental biological repeats.", "values": [{"smiles": "CC1=C(/C=C/C(C)=C/C=C/C(C)=C/C(=O)O)C(C)(C)CCC1", "note": "[RA, all trans-retinoic acid]", "RARβ signal (RT-PCR)": "stronger RARβ signal"}]}, {"tested_on": "mouse ES cells (RARβ, Cyp26a1 transcripts)", "assay": "RT-PCR of RA-responsive genes in WT and RARβ KO ES cells", "assay_type": "cell-based", "settings": "WT and RARβ KO ES cells, RA-treated", "description": "as §1, §2", "values": [{"smiles": "CC1=C(/C=C/C(C)=C/C=C/C(C)=C/C(=O)O)C(C)(C)CCC1", "note": "[RA, all trans-retinoic acid]", "Cyp26a1 expression (RT-PCR)": "observed in both WT and RARβ KO ES cells"}]}]}
